± gives the expanded uncertainty stated by the source.
Key:
[1] = 293.15 K; 101.33 kPa; Liquid; Vibrating tube method
[2] = refractive index (Na D-line) (dimensionless); settings: 293.15 K; 101.33 kPa; Liquid; Standard Abbe refractometry

Structure (SMILES)	mass density [1]	refractive index [2]
Cc1ccc(C)c(C)c1 [1,2,4-trimethylbenzene]	875.78 ± 0.13 kg/m3	1.5047 ± 0.0007
CCc1ccccc1C [1-ethyl-2-methylbenzene]	880.66 ± 0.13 kg/m3	1.5045 ± 0.0007
